What was measured:
barnyardgrass [1] = experiment: Test A pre-/postemergence herbicide test; assay type: in vivo, Echinochloa crus-galli
Summary of the method: (§1)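 Pre: seeded sandy loam, directed soil spray, compound in non-phytotoxic solvent + surfactant. Post: 1–2-leaf plants (2–10 cm), sprayed to runoff. Greenhouse ~10 d; visual injury vs untreated, 0–100 scale.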

large crabgrass [2] = experiment: Test A pre-/postemergence herbicide test; assay type: in vivo, Digitaria sanguinalis
Summary of the method: as §1

giant foxtail [3] = experiment: Test A pre-/postemergence herbicide test; assay type: in vivo, Setaria faberi
Summary of the method: as §1

morningglory [4] = experiment: Test A pre-/postemergence herbicide test; assay type: in vivo, Ipomoea spp.
Summary of the method: as §1

redroot pigweed = experiment: Test A pre-/postemergence herbicide test; assay type: in vivo, Amaranthus retroflexus
Summary of the method: as §1

velvetleaf [5] = experiment: Test A pre-/postemergence herbicide test; assay type: in vivo, Abutilon theophrasti
Summary of the method: as §1

barnyardgrass [6] = experiment: Test B pre-/postemergence herbicide test; assay type: in vivo, Echinochloa crus-galli
Summary of the method: (§2)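 Evaluation is visual, comparing treated with control plants on a scale where 0 means no effect and 100 means full control. Treatments were preemergence, or postemergence on seedlings 2–18 cm tall, and held 13–15 days in the greenhouse.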

Surinam grass = experiment: Test B pre-/postemergence herbicide test; assay type: in vivo, Urochloa decumbens; settings: scale 0 (no effect) to 100 (complete control)
Summary of the method: (§3)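 Greenhouse pot assay with simultaneous preemergence (treated seed) and postemergence (2–18 cm seedlings) applications of surfactant-containing, non-phytotoxic solvent formulations. Response scored visually 13–15 days later on a 0–100 scale, 100 meaning complete control.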

cocklebur = experiment: Test B pre-/postemergence herbicide test; assay type: in vivo, Xanthium strumarium; settings: scale 0 (no effect) to 100 (complete control)
Summary of the method: as §2

corn = experiment: Test B pre-/postemergence herbicide test; assay type: in vivo, Zea mays
Summary of the method: as §3

large crabgrass [7] = experiment: Test B pre-/postemergence herbicide test; assay type: in vivo, Digitaria sanguinalis; settings: scale 0 (no effect) to 100 (complete control)
Summary of the method: as §3

giant foxtail [8] = experiment: Test B pre-/postemergence herbicide test; assay type: in vivo, Setaria faberi
Summary of the method: as §3

lambsquarters = experiment: Test B pre-/postemergence herbicide test; assay type: in vivo, Chenopodium album
Summary of the method: as §3

morningglory [9] = experiment: Test B pre-/postemergence herbicide test; assay type: in vivo, Ipomoea coccinea
Summary of the method: as §2

pigweed = experiment: Test B pre-/postemergence herbicide test; assay type: in vivo, Amaranthus retroflexus
Summary of the method: as §3

rice [10] = experiment: Test B pre-/postemergence herbicide test; assay type: in vivo, Oryza sativa; settings: preemergence
Summary of the method: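 Species tested were Echinochloa crus-galli, Ipomoea coccinea, Xanthium strumarium and Oryza sativa, treated both before emergence and at the 1- to 4-leaf stage; rice and barnyardgrass were also tested under flooding at 2 leaves. Greenhouse incubation lasted 13–15 days before visual 0–100 scoring.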

velvetleaf [11] = experiment: Test B pre-/postemergence herbicide test; assay type: in vivo, Abutilon theophrasti; settings: scale 0 (no effect) to 100 (complete control)
Summary of the method: as §3

blackgrass = experiment: Test B postemergence herbicide test; assay type: in vivo, Alopecurus myosuroides; settings: scale 0 (no effect) to 100 (complete control)
Summary of the method: (§4)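 Each value is a visual 0–100 response rating taken against controls 13 to 15 days after treatment in the greenhouse. Plants received formulated chemical postemergence at the 1- to 4-leaf stage or, in flooded paddy, at the 2-leaf stage.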

wheat = experiment: Test B postemergence herbicide test; assay type: in vivo, Triticum aestivum; design: key to Wheat plant response rating: 0 = no effect, 100 = complete control; settings: scale 0 (no effect) to 100 (complete control)
Summary of the method: (§5)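 Greenhouse test; postemergence application to plants at 1–4 leaves (2–18 cm); paddy species at 2 leaves; evaluated visually vs controls at 13–15 days; scale 0–100 (100 = complete control).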

wild oat = experiment: Test B postemergence herbicide test; assay type: in vivo, Avena fatua; settings: scale 0 (no effect) to 100 (complete control)
Summary of the method: as §5

rice [12] = experiment: Test B flooded paddy test; assay type: in vivo, Oryza sativa; settings: 1000 g ai/ha, visual rating, scale 0 to 100 (0 no effect, 100 complete control), 13 to 15 days
Summary of the method: as §5

[13] = system: small flower umbrella sedge; experiment: Test B flooded paddy test; assay type: in vivo, Cyperus difformis; settings: 1000 g ai/ha, visual rating, scale 0 to 100 (0 no effect, 100 complete control), 13 to 15 days
Summary of the method: as §4

ducksalad = experiment: Test B flooded paddy test; assay type: in vivo, Heteranthera limosa; settings: 1000 g ai/ha, visual rating, scale 0 to 100 (0 no effect, 100 complete control), 13 to 15 days
Summary of the method: as §4

barnyardgrass [14] = experiment: Test B flooded paddy test; assay type: in vivo, Echinochloa crus-galli; settings: 1000 g ai/ha, visual rating, scale 0 to 100 (0 no effect, 100 complete control), 13 to 15 days
Summary of the method: as §4

[15] = Postemergence, 500 g ai/ha, 0 to 100 scale, 0 no effect, 100 complete control
[16] = Postemergence, 2000 g ai/ha, 0 to 100 scale, 0 no effect, 100 complete control
[17] = Preemergence, 500 g ai/ha, visual rating, 0 to 100 scale (0 no effect, 100 complete control)
[18] = Preemergence, 2000 g ai/ha, 0 to 100 scale, 0 no effect, 100 complete control
[19] = 500 g ai/ha, visual rating 0-100, 0 no effect, 100 complete control, preemergence
[20] = Postemergence, 500 g ai/ha, visual rating after 13 to 15 days, scale 0 (no effect) to 100 (complete control)
[21] = postemergence, 125 g ai/ha, visual rating, scale 0 (no effect) to 100 (complete control)
[22] = preemergence, 125 g ai/ha, 0 to 100 scale, 0 is no effect, 100 is complete control
[23] = Postemergence, 500 g ai/ha, visual rating after 13 to 15 days
[24] = postemergence, 125 g ai/ha, visual rating

CCn1nc(C(C)(C)C)cc1C(=O)Nc1cccc(C(=O)OCCF)c1C [Compound 91]
Barnyardgrass plant response rating (barnyardgrass [1]; [15]): 0
Plant response rating, Barnyardgrass (barnyardgrass [1]; [16]): 0
Barnyardgrass plant response rating (barnyardgrass [1]; [17]): 0
Barnyardgrass plant response rating (barnyardgrass [1]; [18]): 15
Crabgrass, Large plant response rating (large crabgrass [2]; [15]): 10
Plant response rating, Crabgrass, Large (large crabgrass [2]; [16]): 20
Crabgrass, Large plant response rating (large crabgrass [2]; [17]): 0
Crabgrass, Large plant response rating (large crabgrass [2]; [18]): 35
Foxtail, Giant plant response rating (giant foxtail [3]; [15]): 0
Plant response rating, Foxtail, Giant (giant foxtail [3]; [16]): 0
Foxtail, Giant plant response rating (giant foxtail [3]; [17]): 0
Foxtail, Giant plant response rating (giant foxtail [3]; [18]): 30
Morningglory plant response rating (morningglory [4]; [15]): 0
Plant response rating, Morningglory (morningglory [4]; [16]): 0
Morningglory plant response rating (morningglory [4]; [17]): 0
Morningglory plant response rating (morningglory [4]; [18]): 10
Pigweed plant response rating (redroot pigweed; [15]): 0
Plant response rating, Pigweed (redroot pigweed; [16]): 20
Pigweed plant response rating (redroot pigweed; [17]): 0
Pigweed plant response rating (redroot pigweed; [18]): 55
Velvetleaf plant response rating (velvetleaf [5]; [15]): 5
Plant response rating, Velvetleaf (velvetleaf [5]; [16]): 10
Velvetleaf plant response rating (velvetleaf [5]; [17]): 5
Velvetleaf plant response rating (velvetleaf [5]; Preemergence, 2000 g ai/ha, visual rating, 0 to 100 scale (0 no effect, 100 complete control)): 20
Plant response rating, Barnyardgrass (barnyardgrass [6]; [19]): 10
Plant response rating, Barnyardgrass (barnyardgrass [6]; [20]): 0
Barnyardgrass plant response rating (barnyardgrass [6]; [21]): 0
Plant response rating, Barnyardgrass (barnyardgrass [6]; [22]): 0
Plant response rating, Surinam Grass (Surinam grass; [23]): 10
Surinam Grass plant response rating (Surinam grass; [24]): 10
Plant response rating, Cocklebur (cocklebur; [23]): 10
Cocklebur plant response rating (cocklebur; [24]): 0
Plant response rating, Corn (corn; [19]): 10
Plant response rating, Corn (corn; [20]): 10
Corn plant response rating (corn; [21]): 10
Plant response rating, Corn (corn; [22]): 0
Plant response rating, Crabgrass, Large (large crabgrass [7]; [23]): 10
Crabgrass, Large plant response rating (large crabgrass [7]; [24]): 0
Plant response rating, Foxtail, Giant (giant foxtail [8]; [19]): 10
Plant response rating, Foxtail, Giant (giant foxtail [8]; [20]): 0
Foxtail, Giant plant response rating (giant foxtail [8]; [21]): 0
Plant response rating, Foxtail, Giant (giant foxtail [8]; [22]): 10
Plant response rating, Lambsquarters (lambsquarters; [19]): 30
Plant response rating, Lambsquarters (lambsquarters; [20]): 30
Lambsquarters plant response rating (lambsquarters; [21]): 20
Plant response rating, Lambsquarters (lambsquarters; [22]): 0
Plant response rating, Morningglory (morningglory [9]; [19]): 10
Plant response rating, Morningglory (morningglory [9]; [20]): 0
Morningglory plant response rating (morningglory [9]; [21]): 0
Plant response rating, Morningglory (morningglory [9]; [22]): 0
Plant response rating, Pigweed (pigweed; [19]): 0
Plant response rating, Pigweed (pigweed; [20]): 10
Pigweed plant response rating (pigweed; [21]): 10
Plant response rating, Pigweed (pigweed; [22]): 0
Plant response rating, Rice (rice [10]; 500 g ai/ha, visual rating 0-100, 0 no effect, 100 complete control): 10
Plant response rating, Rice (rice [10]; 125 g ai/ha, 0 to 100 scale, 0 is no effect, 100 is complete control): 0
Plant response rating, Velvetleaf (velvetleaf [11]; [23]): 10
Velvetleaf plant response rating (velvetleaf [11]; [24]): 0
Plant response rating, Blackgrass (blackgrass; [23]): 0
Blackgrass plant response rating (blackgrass; [24]): 0
Plant response rating, Wheat (wheat; [23]): 10
Wheat plant response rating (wheat; [24]): 0
Plant response rating, Oat, Wild (wild oat; [23]): 10
Oat, Wild plant response rating (wild oat; [24]): 0
Rice plant response rating (rice [12]): 10
Sedge, Umbrella plant response rating [13]: 60
Ducksalad plant response rating (ducksalad): 30
Barnyardgrass plant response rating (barnyardgrass [14]): 0
